Laboratory results: US5138101A, “Recovery of high-boiling aldehydes from rhodium-catalyzed hydroformylation processes” (Eastman Kodak Company, priority 1991, dated 1992)

Tests used:
[1] = Extraction and back-extraction with p-diisopropylbenzene or 1,7-octadiene: rhodium concentration in both phases, composition of extraction solution; assay type: physicochemical
Experimental: Examples […] illustrate yet another embodiment of the process of the present invention wherein extraction solution containing dissolved rhodium is back-extracted with either hydroformylation solvent or olefinic feedstock to reduce the concentration of rhodium in the extraction solution.
The general procedure described in Examples 31-48 was used to extract 60.5 mL of hydroformylation product solution obtained by the hydroformylation of 1,7 octadiene in the presence of a catalyst system comprising rhodium and BISBI phosphine (Reference Example 9). […] The extraction flask was charged with the hydroformylation product solution, 37 mL methanol, 12 mL water and […] [Na] provided as sodium oleate.
For Example 88, the extraction mixture was stirred at room temperature for 30 minutes and then drained into a calibrated, addition funnel and allowed to stand for about five minutes to permit phase separation. The volume of the hydroformylation product solution (organic) phase was 45 mL and the volume of the extraction solution phase was 65 ml. Samples of each phase were taken for rhodium and product composition analyses.
For Example 89, the extraction solution phase separated in Example 88 was added to a clean 250 mL flask along with 30 mL of p-diisopropylbenzene and the mixture was stirred at 50° C. for 30 minutes, was allowed to stand at 50° C. for about 5 minutes to permit phase separation and then each phase was separated and analyzed for composition and rhodium concentration.
For Example 90, the extraction solution separated in Example 89 was added to a clean 250 mL flask along with another 30 mL of p-diisopropylbenzene hydroformylation solvent. The mixture was agitated at 50° C. for thirty minutes, allowed to stand at 50° C. for 5 minutes to permit phase separation and each phase was analyzed for composition and rhodium concentration.
This scheme would be useful in a counter-current extraction method for recycling recovered hydroformylation product solution as well as in using the olefinic feed to the reactor as a back extraction solvent for recovering soluble rhodium from the methanol/water extract.
Example 91 was carried out using the procedure described in Examples 88. The flask was charged with 62 mL of a hydroformylation product solution (Reference Example 10) having a rhodium concentration 166 mg/L and containing 3.01 g of C9-enal, 12.69 g of C10-dial and 37.84 grams of p-diisopropylbenzene. Methanol (37 ml), water (16 ml) and 78 mg Na (as sodium 2-ethylhexanoate) were added to the flask. This mixture was stirred at 50° C. for 30 minutes and then allowed to stand for 5 minutes at 50° C. to permit phase separation. The hydroformylation product solution (organic) phase and the extraction solution phase were both sampled and analyzed for rhodium concentration. The 2 phases were drained into a clean, graduated addition funnel and the volumes of the two phases were measured. The volume of the organic layer was 43 mL and the extraction solution layer was 62 mL.
For Example 92, the extraction solution phase produced in Example 91 was added to a clean, 250 mL flask along with 30 mL of p-diisopropylbenzene and the mixture was stirred at 50° C. for 30 minutes and then allowed to separate into two phases. The two phases were analyzed for rhodium concentration and composition. The mixture was drained into a clean addition funnel to separate the two phases. For Example 93, the extraction solution phase of Example 92 and 30 mL of 1,7-octadiene were added to a clean, 250 mL flask. This mixture was stirred at 50° C. for 30 minutes and then allowed to separate into two phases which were analyzed for rhodium concentration.
The amounts (g) of C9-enal, C10-dial in the sample of hydroformylation product solution initially extracted and in the methanol/water extraction solutions resulting from Examples 91, 92 and 93 are given in Table XIII. The ratio given in Table XIII is the weight ratio of C10-dial:C9-enal. […]

[2] = Partitioning (partition coefficient, Kp) of hydroformylation products and hydroformylation solvent between hydroformylation solvent phase and alkanol/water extraction solution phase; assay type: physicochemical
Text: The extraction process described herein is the equilibration of a particular compound dissolving into two separate liquid phases. The effectiveness of the present extraction process may be measured in terms of the partition coefficient (Kp) for a compound "X" which is defined as: [formula] […] High Kp values give high extraction efficiencies requiring lower amounts of extraction solution. Similarly, it is desirable that the Kp of the hydroformylation solvent be a low value. This simplifies purification of the aldehyde products down-stream. In the hydroformylation of diolefins to dialdehydes, it also is desirable to have Kp values for the dialdehyde products larger than the Kp values of the intermediate mono-aldehyde mono-olefin (formyl-olefin) intermediate formed in the hydroformylation reaction. This permits recycling of the formyl-olefin to the hydroformylation reactor in the hydroformylation solvent for further reaction to the desired dialdehyde product, while selectively extracting the desired di-aldehyde product. Likewise, for the same reason, it is desirable to have low Kp values for the olefin or polyolefin feedstocks used in the process.
The extraction examples were carried out in a 300 mL, 3-neck, glass flask equipped with a Teflon magnetic stir bar, a thermometer to measure the temperature of the liquid, a septum for the use of a syringe, a heating mantle and a nitrogen bubbler blanket for the system. […] […] The mixture was stirred at 25° C. for 30 minutes to reach equilibrium, stirring was stopped, and the mixture was allowed to separate into 2 layers (phases) over a 30 minute period of time. […] Samples of each phase were taken with a syringe and chromatographed on a Hewlett Packard Model 5730 capillary FID gas chromatograph. The instrument used a 30 meter DB-1 column (Supelco.) with a programming rate of a 4 minute hold at 70° C. with a programming rate of 8° C./minute to 250° C. The calculations for the weights of hydroformylation products in each phase were carried out using standard procedures using the dodecane as an internal standard for the catalyst layer and methanol as the internal standard for the aqueous layer. The initial volumes of the two phases were used for estimation of the volumes of the two phases at equilibrium to obtain the concentrations of the products in each phase.
The partition coefficients (Kp) were calculated for the C9-enal and C10-dial products for equilibrium between the dodecane hydroformylation solvent and the extraction solution phases at 25° C.
The two phases in the flask were heated to and maintained at 53° C. with stirring for 30 minutes to reach equilibrium. The mixture was allowed to separate into 2 layers at 53° C. and each layer was sampled and analyzed as described above. […] The partitioning procedure was repeated at 70° C.

[3] = Example 92, after p-diisopropylbenzene back-extraction
[4] = Example 93, after 1,7-octadiene back-extraction

With isomeric decanedialdehyde [C10-dial] the “Composition of Extraction Solution (amount)” value (from here on “Composition”) ([1]; Example 91) was 11.67 g, the “Weight ratio of C10-dial:C9-enal in extraction solution” value (“Weight ratio of C10-dial:C9-enal” for short) ([1]; Example 91) was 8.40 and the “Weight ratio of C10-dial:C9-enal” value ([1]; Example 92) was 18.06. For the same molecule, the “Composition” value [1, 3] was 9.21 g, the “Weight ratio of C10-dial:C9-enal” value ([1]; Example 93) was 33.94 and the “Composition” value [1, 4] was 6.11 g.
With `c1ccc2c(c1)CCCC2` [tetrahydronaphthalene] the “Partition Coefficient” value ([2]; Example 15, Ref. Ex. 22, MeOH:water 1.5:1, 52° C.) was 0.079 and the “Partition Coefficient” value ([2]; Example C-6, Ref. Ex. 18, DEG:water 3:1, 25° C.) was 0.092.
For `C1CCC2CCCCC2C1` (stereo not drawn) [decahydronaphthalene], the “Partition Coefficient” value ([2]; Example C-4, Ref. Ex. 17, DEG:water 1:1, 25° C.) was 0.0050 and the “Partition Coefficient” value ([2]; Example C-5, Ref. Ex. 17, DEG:water 1:1, 70° C.) was 0.034.
In the case of isomeric noneneal [C9-enal], the “Composition” value ([1]; Example 91) is reported as 1.39 g, the “Composition” value [1, 3] is reported as 0.51 g and the “Composition” value [1, 4] is reported as 0.18 g.
In the case of `CCCCC(CC)COC(=O)c1ccccc1C(=O)OCC(CC)CCCC` (stereo not drawn) [di-(2-ethylhexyl) phthalate], the “Partition Coefficient” value ([2]; Example 16, Ref. Ex. 23, MeOH:water 3:1, 50° C.) is reported as 0.0448 and the “Partition Coefficient” value ([2]; Example 17, Ref. Ex. 23, MeOH:water 1:1, 50° C.) is reported as 0.0037.
